Data reported in ChEMBL document CHEMBL1201862, “PubChem BioAssay data set” (2004).
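Each compound was tested at five concentrations against cells in 96-well plates for 48 hours. GI50 is the concentration that inhibits growth by half.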 Calls of active or inactive are those of the source. Cut-off read from the data, not from the text of the source: active = GI50 up to about 1.1 µM and inactive = higher.

Assays:
Assay in all cases: DTP human tumour cell line panel, 48 h
[1] = tested on: MDA-MB-435
[2] = tested on: CAKI-1
[3] = tested on: UACC-62
[4] = tested on: CCRF-CEM
[5] = tested on: SF-268
[6] = tested on: HOP-92
[7] = tested on: NCI-H226
[8] = tested on: NCI-H522
[9] = tested on: DU-145
[10] = tested on: SN12C
[11] = tested on: NCI-H460
[12] = tested on: SK-MEL-28
[13] = tested on: T47D
[14] = tested on: HOP-62
[15] = tested on: UO-31
[16] = tested on: 786-0
[17] = tested on: MDA-MB-231
[18] = tested on: RPMI-8226
[19] = tested on: PC-3
[20] = tested on: NCI/ADR-RES
[21] = tested on: OVCAR-8
[22] = tested on: HL-60
[23] = tested on: HCT-15
[24] = tested on: A498
[25] = tested on: SK-OV-3
[26] = tested on: MOLT-4
[27] = tested on: OVCAR-4
[28] = tested on: NCI-H23
[29] = tested on: SW-620
[30] = tested on: U-251
[31] = tested on: UACC-257
[32] = tested on: SK-MEL-5
[33] = tested on: SF-539
[34] = tested on: SR
[35] = tested on: M14
[36] = tested on: SF-295
[37] = tested on: HCC 2998
[38] = tested on: SNB-19
[39] = tested on: HCT-116
[40] = tested on: OVCAR-3
[41] = tested on: BT-549
[42] = tested on: ACHN
[43] = tested on: TK-10
[44] = tested on: IGROV-1
[45] = tested on: SK-MEL-2
[46] = tested on: MCF7
[47] = tested on: EKVX
[48] = tested on: OVCAR-5
[49] = tested on: HT-29
[50] = tested on: COLO 205
[51] = tested on: RXF 393
[52] = tested on: Hs-578T
[53] = tested on: SNB-75
[54] = tested on: KM12
[55] = tested on: K562
[56] = tested on: A549
[57] = tested on: LOX IMVI
[58] = tested on: Malme-3M

Measured: GI50

COc1ccc(CCNC(=O)CCc2ccccc2CO)cc1OC
> 100 µM: [23]
inactive: [1] > 100 µM | [2] > 100 µM | [3] > 100 µM | [4] > 100 µM | [5] > 100 µM | [6] > 100 µM | [7] > 100 µM | [8] > 100 µM | [9] > 100 µM | [10] > 100 µM | [11] > 100 µM | [12] > 100 µM | [13] > 100 µM | [14] > 100 µM | [15] > 100 µM | [16] > 100 µM | [17] > 100 µM | [18] > 100 µM | [19] > 100 µM | [20] > 100 µM | [21] > 100 µM | [22] > 100 µM | [24] > 100 µM | [25] > 100 µM | [26] > 100 µM | [27] > 100 µM | [28] > 100 µM | [29] > 100 µM | [30] > 100 µM | [31] > 100 µM | [32] > 100 µM | [33] > 100 µM | [34] > 100 µM | [35] > 100 µM | [36] > 100 µM | [37] > 100 µM | [38] > 100 µM | [39] > 100 µM | [40] > 100 µM | [41] > 100 µM | [42] > 100 µM | [43] > 100 µM | [44] > 100 µM | [45] > 100 µM | [46] > 100 µM | [47] > 100 µM | [48] > 100 µM | [49] > 100 µM | [50] > 100 µM | [51] > 100 µM | [52] > 100 µM | [53] > 100 µM | [54] > 100 µM | [55] > 100 µM | [56] > 100 µM

O=C1OCC2=Nc3cccc4cccc(c34)N12
> 100 µM: [23]
inactive: [1] > 100 µM | [2] > 100 µM | [3] > 100 µM | [4] 49.8 µM | [5] > 100 µM | [7] > 100 µM | [8] 88.9 µM | [9] > 100 µM | [10] > 100 µM | [11] > 100 µM | [12] > 100 µM | [13] > 100 µM | [14] > 100 µM | [15] > 100 µM | [16] > 100 µM | [17] > 100 µM | [19] > 100 µM | [20] > 100 µM | [21] > 100 µM | [22] > 100 µM | [25] > 100 µM | [26] > 100 µM | [57] > 100 µM | [27] > 100 µM | [28] > 100 µM | [29] > 100 µM | [30] > 100 µM | [31] > 100 µM | [32] > 100 µM | [33] > 100 µM | [34] > 100 µM | [35] > 100 µM | [36] > 100 µM | [37] > 100 µM | [38] > 100 µM | [39] > 100 µM | [40] > 100 µM | [41] > 100 µM | [42] > 100 µM | [43] > 100 µM | [44] > 100 µM | [46] > 100 µM | [47] 57.1 µM | [49] > 100 µM | [50] > 100 µM | [51] > 100 µM | [52] > 100 µM | [53] > 100 µM | [54] > 100 µM | [55] > 100 µM | [56] > 100 µM
active: [6] < 0.01 µM

COc1cc(/C=C/c2cc(=O)cc(/C=C/c3ccc(O)c(OC)c3)o2)ccc1O
inactive: [1] 35.5 µM | [2] 64.3 µM | [3] 44.1 µM | [5] 38 µM | [6] 17.9 µM | [7] 29.3 µM | [8] 9.79 µM | [9] 31 µM | [10] > 60.3 µM | [11] 44 µM | [12] > 100 µM | [13] 15.3 µM | [14] 22 µM | [15] > 100 µM | [16] 23.3 µM | [17] 26.4 µM | [19] > 85.9 µM | [20] 98.4 µM | [21] 46.2 µM | [22] 15.7 µM | [24] > 100 µM | [25] 76.4 µM | [57] 29.6 µM | [27] 16.4 µM | [28] 59.7 µM | [29] > 35.5 µM | [30] 25.5 µM | [31] > 100 µM | [32] 13.6 µM | [33] > 62.5 µM | [34] > 23.6 µM | [35] > 100 µM | [36] 32.4 µM | [58] > 69.5 µM | [37] 13.6 µM | [38] > 92 µM | [39] > 55.5 µM | [40] 76.4 µM | [41] 99.8 µM | [42] 48.1 µM | [43] > 75.5 µM | [44] > 100 µM | [45] 41.2 µM | [46] 6.27 µM | [47] > 70 µM | [48] > 100 µM | [49] > 80.4 µM | [50] > 100 µM | [51] 15.9 µM | [52] 24.4 µM | [53] 29.9 µM | [54] > 38.3 µM | [55] > 21 µM | [56] 64.1 µM
60.4 µM: [23]
active: [4] 0.324 µM | [18] 1.1 µM
